Experimental data: patent US20250320213A1, “Nitrogen-Containing Heterocyclic Compounds” (Pfizer Inc., priority 2024, published 2025)

Target: T1, STAT6 (Homo sapiens, UniProt P42226)
T1 construct: stably transfected HaCaT keratinocyte cell line, which expresses NanoLuc luciferase reporter gene under the transcriptional control of the STAT6 responsive promoter; endogenous in cells; host or cells: HaCaT keratinocyte reporter cell line (stably transfected with a NanoLuc reporter)
T1 sequence (P42226 1-847): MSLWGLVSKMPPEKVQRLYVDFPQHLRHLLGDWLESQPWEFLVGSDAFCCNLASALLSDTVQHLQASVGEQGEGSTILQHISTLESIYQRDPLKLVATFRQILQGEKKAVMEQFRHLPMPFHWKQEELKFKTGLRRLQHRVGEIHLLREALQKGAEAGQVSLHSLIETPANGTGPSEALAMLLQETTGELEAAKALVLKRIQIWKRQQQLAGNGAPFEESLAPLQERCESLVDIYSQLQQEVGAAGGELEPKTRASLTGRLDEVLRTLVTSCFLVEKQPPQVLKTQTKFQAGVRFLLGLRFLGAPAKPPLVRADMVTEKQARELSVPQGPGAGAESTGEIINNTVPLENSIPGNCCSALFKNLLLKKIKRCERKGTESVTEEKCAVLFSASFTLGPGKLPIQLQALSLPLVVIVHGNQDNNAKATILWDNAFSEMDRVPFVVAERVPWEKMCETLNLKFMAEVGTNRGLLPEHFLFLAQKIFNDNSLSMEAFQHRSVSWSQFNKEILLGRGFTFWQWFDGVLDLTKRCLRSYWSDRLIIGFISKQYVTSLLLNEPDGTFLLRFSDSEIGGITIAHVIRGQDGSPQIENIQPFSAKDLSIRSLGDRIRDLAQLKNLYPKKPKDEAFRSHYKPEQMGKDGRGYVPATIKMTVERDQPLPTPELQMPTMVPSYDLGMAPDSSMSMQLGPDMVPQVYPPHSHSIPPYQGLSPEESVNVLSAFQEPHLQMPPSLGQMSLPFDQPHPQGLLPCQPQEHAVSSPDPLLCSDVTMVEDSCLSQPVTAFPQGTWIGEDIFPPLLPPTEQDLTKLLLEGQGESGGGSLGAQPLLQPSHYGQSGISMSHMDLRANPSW
Experiment: STAT6 Reporter Luciferase Assay (IL-13 stimulated HaCaT keratinocyte NanoLuc reporter cells)
Assay type: cell-based
Settings: IL-13 stimulated HaCaT STAT6 NanoLuc reporter cells; read-out: Reporter EC50
How it was run: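 IL-13 (0.12 nM, 4 h) stimulated STAT6 reporter activity in HaCaT cells after a 2 h compound pre-incubation; NanoLuc signal was measured.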

SMILES	EC50
CC(C)n1nc(C(=O)NCc2ccc(NC(=O)N(C)C)cc2)c2c1CCN(c1ccc(C(=O)N3CCc4ccc(C#N)cc4C3)cn1)C2 [Example 422, 5-(5-(7-cyano-1,2,3,4-tetrahydroisoquinoline-2-carbonyl)pyridin-2-yl)-N-(4-(3,3-dimethylureido)benzyl)-1-isopropyl-4,5,6,7-tetrahydro-1H-pyrazolo[4,3-c]pyridine-3-carboxamide]	19 nM
Cc1nc2c(o1)CCN(C(=O)c1ccc(N3CCc4c(c(C(=O)NCc5ccc(NC(=O)N(C)C)cc5)nn4C(C)C)C3)nc1)C2 [Example 423, N-(4-(3,3-dimethylureido)benzyl)-1-isopropyl-5-(5-(2-methyl-4,5,6,7-tetrahydrooxazolo[4,5-c]pyridine-5-carbonyl)pyridin-2-yl)-4,5,6,7-tetrahydro-1H-pyrazolo[4,3-c]pyridine-3-carboxamide]	29 nM
CC(C)n1nc(C(=O)NCc2ccc(NC(=O)N(C)C)cc2)c2c1CCN(c1ccc(C(=O)N3Cc4ccnn4C(C)C3)cn1)C2 (centres unmarked) [Example 424, N-(4-(3,3-dimethylureido)benzyl)-1-isopropyl-5-(5-(7-methyl-4,5,6,7-tetrahydropyrazolo[1,5-a]pyrazine-5-carbonyl)pyridin-2-yl)-4,5,6,7-tetrahydro-1H-pyrazolo[4,3-c]pyridine-3-carboxamide]	46 nM
CC(C)n1nc(C(=O)NCc2ccc(NC(=O)N(C)C)cc2)c2c1CCN(c1ccc(C(=O)N3CCn4nccc4C3)cn1)C2 [Example 425, N-(4-(3,3-dimethylureido)benzyl)-1-isopropyl-5-(5-(4,5,6,7-tetrahydropyrazolo[1,5-a]pyrazine-5-carbonyl)pyridin-2-yl)-4,5,6,7-tetrahydro-1H-pyrazolo[4,3-c]pyridine-3-carboxamide]	34 nM
CC(C)n1nc(C(=O)NCc2ccc(NC(=O)N(C)C)cc2)c2c1CCN(c1ccc(C(=O)N3CCn4nncc4C3)cn1)C2 [Example 427, N-(4-(3,3-dimethylureido)benzyl)-1-isopropyl-5-(5-(4,5,6,7-tetrahydro-[1,2,3]triazolo[1,5-a]pyrazine-5-carbonyl)pyridin-2-yl)-4,5,6,7-tetrahydro-1H-pyrazolo[4,3-c]pyridine-3-carboxamide]	282 nM
CC(C)n1nc(C(=O)NCc2ccc(NC(=O)N(C)C)cc2)c2c1CCN(c1ccc(C(=O)N3CCc4oncc4C3)cn1)C2 [Example 432, N-(4-(3,3-dimethylureido)benzyl)-1-isopropyl-5-(5-(4,5,6,7-tetrahydroisoxazolo[4,5-c]pyridine-5-carbonyl)pyridin-2-yl)-4,5,6,7-tetrahydro-1H-pyrazolo[4,3-c]pyridine-3-carboxamide]	186 nM
CC(C)n1nc(C(=O)NCc2ccc(NC(=O)N(C)C)cc2)c2c1CCN(c1ccc(C(=O)N3CCc4cncnc4C3)cn1)C2 [Example 433, N-(4-(3,3-dimethylureido)benzyl)-1-isopropyl-5-(5-(5,6,7,8-tetrahydropyrido[3,4-d]pyrimidine-7-carbonyl)pyridin-2-yl)-4,5,6,7-tetrahydro-1H-pyrazolo[4,3-c]pyridine-3-carboxamide]	276 nM
CC(C)n1nc(C(=O)NCc2ccc(NC(=O)N(C)C)cc2)c2c1CCN(c1ccc(C(=O)N3CCn4cncc4C3)cn1)C2 [Example 438, N-(4-(3,3-dimethylureido)benzyl)-1-isopropyl-5-(5-(5,6,7,8-tetrahydroimidazo[1,5-a]pyrazine-7-carbonyl)pyridin-2-yl)-4,5,6,7-tetrahydro-1H-pyrazolo[4,3-c]pyridine-3-carboxamide]	105 nM
Cc1nnn2c1CN(C(=O)c1ccc(N3CCc4c(c(C(=O)NCc5ccc(NC(=O)N(C)C)cc5)nn4C(C)C)C3)nc1)CC2 [Example 455, N-(4-(3,3-dimethylureido)benzyl)-1-isopropyl-5-(5-(3-methyl-4,5,6,7-tetrahydro-[1,2,3]triazolo[1,5-a]pyrazine-5-carbonyl)pyridin-2-yl)-4,5,6,7-tetrahydro-1H-pyrazolo[4,3-c]pyridine-3-carboxamide]	311 nM

The next lines start with the values.

EC50	SMILES
13 nM	CC(C)n1nc(C(=O)NCc2ccc(NC(=O)N(C)C)cc2)c2c1CCN(c1ccc(C(=O)N3Cc4ccccc4[C@H]3C)cn1)C2 [Example 426, (R)-N-(4-(3,3-dimethylureido)benzyl)-1-isopropyl-5-(5-(1-methylisoindoline-2-carbonyl)pyridin-2-yl)-4,5,6,7-tetrahydro-1H-pyrazolo[4,3-c]pyridine-3-carboxamide]
82 nM	CC(C)n1nc(C(=O)NCc2ccc(NC(=O)N(C)C)cc2)c2c1CCN(c1ccc(C(=O)N3CCc4cnccc4C3)cn1)C2 [Example 434, N-(4-(3,3-dimethylureido)benzyl)-1-isopropyl-5-(5-(1,2,3,4-tetrahydro-2,6-naphthyridine-2-carbonyl)pyridin-2-yl)-4,5,6,7-tetrahydro-1H-pyrazolo[4,3-c]pyridine-3-carboxamide]
10 nM	CC(C)n1nc(C(=O)NCc2ccc(NC(=O)N(C)C)cc2)c2c1CCN(c1ccc(C(=O)N3CCc4ccccc4C3)cn1)C2 [Example 435, N-(4-(3,3-dimethylureido)benzyl)-1-isopropyl-5-(5-(1,2,3,4-tetrahydroisoquinoline-2-carbonyl)pyridin-2-yl)-4,5,6,7-tetrahydro-1H-pyrazolo[4,3-c]pyridine-3-carboxamide]
22 nM	CC(C)n1nc(C(=O)NCc2ccc(NC(=O)N(C)C)cc2)c2c1CCN(c1ccc(C(=O)N3CCc4cc(C#N)ccc4C3)cn1)C2 [Example 436, 5-(5-(6-cyano-1,2,3,4-tetrahydroisoquinoline-2-carbonyl)pyridin-2-yl)-N-(4-(3,3-dimethylureido)benzyl)-1-isopropyl-4,5,6,7-tetrahydro-1H-pyrazolo[4,3-c]pyridine-3-carboxamide]
88 nM	CC(C)n1nc(C(=O)NCc2ccc(NC(=O)N(C)C)cc2)c2c1CCN(c1ccc(C(=O)N3CCn4c(cccc4=O)C3)cn1)C2 [Example 439, N-(4-(3,3-dimethylureido)benzyl)-1-isopropyl-5-(5-(6-oxo-1,3,4,6-tetrahydro-2H-pyrido[1,2-a]pyrazine-2-carbonyl)pyridin-2-yl)-4,5,6,7-tetrahydro-1H-pyrazolo[4,3-c]pyridine-3-carboxamide]
16 nM	Cc1cc2c(cn1)CN(C(=O)c1ccc(N3CCc4c(c(C(=O)NCc5ccc(NC(=O)N(C)C)cc5)nn4C(C)C)C3)nc1)C2 [Example 440, N-(4-(3,3-dimethylureido)benzyl)-1-isopropyl-5-(5-(6-methyl-2,3-dihydro-1H-pyrrolo[3,4-c]pyridine-2-carbonyl)pyridin-2-yl)-4,5,6,7-tetrahydro-1H-pyrazolo[4,3-c]pyridine-3-carboxamide]
2 nM	Cc1cccc2c1CN(C(=O)c1ccc(N3CCc4c(c(C(=O)NCc5ccc(NC(=O)N(C)C)cc5)nn4C(C)C)C3)nc1)C2 [Example 441, N-(4-(3,3-dimethylureido)benzyl)-1-isopropyl-5-(5-(4-methylisoindoline-2-carbonyl)pyridin-2-yl)-4,5,6,7-tetrahydro-1H-pyrazolo[4,3-c]pyridine-3-carboxamide]
2 nM	CC(C)n1nc(C(=O)NCc2ccc(NC(=O)N(C)C)cc2)c2c1CCN(c1ccc(C(=O)N3Cc4ccccc4C3)cn1)C2 [Example 442, N-(4-(3,3-dimethylureido)benzyl)-5-(5-(isoindoline-2-carbonyl)pyridin-2-yl)-1-isopropyl-4,5,6,7-tetrahydro-1H-pyrazolo[4,3-c]pyridine-3-carboxamide]
